Experimental findings from patent US8809333B2, “Imidazole, pyrazole, and triazole derivatives useful as antibacterial agents” (Pfizer Inc., priority 2011, dated 2014) are described below.

≈ marks a conversion by molar mass, not a printed value.

The subject of assay [1] is Escherichia coli EC-1: VOGEL, mouse virulent. Briefly: MIC determination (CLSI), EC-1. To be noted: for MIC: Escherichia coli, read-out: EC-1 (MIC). The class given is cell-based. Put shortly: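 Broth dilution MIC per CLSI M7-A8, with 2-fold compound dilutions incubated overnight with a standard inoculum. MIC is the lowest concentration visibly inhibiting growth versus drug-free control; tested in duplicate, reporting the lower value when within 2-fold, with QC organisms and reference compounds required in range.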

Assay [2] deals with Klebsiella pneumoniae: Ciprofloxacin-resistant isolate, expresses ESBL, clinical isolate (KP-3700). Briefly: MIC determination (CLSI), KP-3700. It counts as cell-based. To be noted: overnight incubation, lower of duplicate values. Put shortly: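 Broth dilution MIC per CLSI M7-A8 against the ciprofloxacin-resistant, ESBL-expressing clinical isolate, 2-fold concentration steps, overnight incubation, visual read of lowest growth-inhibiting concentration. Tested in duplicate; lower value reported when within 2-fold; control organisms and reference compounds required within range.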

The test system of assay [3] is Pseudomonas aeruginosa UI-18: Wild-type (PA-7). Briefly: MIC determination (CLSI), PA-7. The following applies: Pseudomonas aeruginosa UI-18 wild-type, overnight incubation, lower of duplicate values; for MIC: read-out: PA-7 (MIC). The class given is cell-based. Put shortly:
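Broth dilution MIC per CLSI M7-A8, using 2-fold compound dilutions incubated overnight; MIC is the lowest concentration with no visible growth versus the drug-free control. Run in duplicate, lower value reported when within 2-fold. Control organisms and reference compounds were included for QC.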

The target in assay [4] is T1, Pseudomonas aeruginosa LpxC enzyme (Pseudomonas aeruginosa, UniProt P47205).
T1 construct: made in house; host or cells: E. coli
T1 sequence (P47205 1-303): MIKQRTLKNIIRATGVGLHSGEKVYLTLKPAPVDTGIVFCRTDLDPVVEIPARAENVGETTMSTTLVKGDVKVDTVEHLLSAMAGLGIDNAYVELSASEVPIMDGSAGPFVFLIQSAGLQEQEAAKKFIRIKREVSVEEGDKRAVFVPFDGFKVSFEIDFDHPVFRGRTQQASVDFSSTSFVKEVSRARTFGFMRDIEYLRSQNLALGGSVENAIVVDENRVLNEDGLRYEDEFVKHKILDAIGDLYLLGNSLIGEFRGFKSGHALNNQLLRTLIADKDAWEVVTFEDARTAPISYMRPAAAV
The assay is described as follows: IC50 assay, LpxC enzyme from P. aeruginosa (BioTrove RapidFire mass spectrometry). The class given is biochemical. To be noted: P. aeruginosa LpxC enzyme 0.1 nM, 25° C., 1 hour, pH 8.0; read-out: PA: IC50. Put shortly:
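P. aeruginosa LpxC reaction run 1 hour, stopped with 1 N HCl, and substrate-to-product conversion quantified by RapidFire mass spectrometry. IC50 calculated from percent conversion using a no-enzyme control.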

Assay [5] deals with Acinetobacter baumannii/haemolyticus: Multidrug-resistant clinical isolate (AB-3167). The assay is described as follows: MIC determination (CLSI), AB-3167. The class given is cell-based. To be noted: Acinetobacter baumannii/haemolyticus multidrug-resistant clinical isolate, overnight incubation, lower of duplicate values; for MIC: read-out: AB-3167 (MIC). Put shortly: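 Broth dilution MIC per CLSI M7-A8, 2-fold concentration steps, overnight incubation, visual read of lowest concentration inhibiting growth versus drug-free control. Tested in duplicate; lower value reported if within 2-fold, otherwise repeated; QC organisms and reference drugs required within range.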

Usually MIC stands for the lowest concentration found to suppress growth. Broadly, the IC50 is the midpoint of a concentration-inhibition curve. `CC(C)COc1ccc(-c2cnn(CCC(C)(C(=O)NO)S(C)(=O)=O)c2)cn1` (stereo not shown) [Example 81, N-hydroxy-2-methyl-4-{4-[6-(2-methylpropoxy)pyridin-3-yl]-1H-pyrazol-1-yl}-2-(methylsulfonyl)butanamide]: the MIC in assay [1] was 8 µg/mL (≈ 19.5 µM); in assay [3], 32 µg/mL (≈ 78 µM); in assay [5], greater than 64 µg/mL. Also, in assay [2], the “KP-3700 (MIC)” value was determined as 32 µg/mL. In assay [4], the IC50 came out at 2.07 nM.
`Cn1nccc1-c1ccc(-c2cnn(CCC(C)(C(=O)NO)S(C)(=O)=O)c2)cc1` (stereo not shown) [Example 82, N-hydroxy-2-methyl-4-{4-[4-(1-methyl-1H-pyrazol-5-yl)phenyl]-1H-pyrazol-1-yl}-2-(methylsulfonyl)butanamide]: the figures for the MIC in assay [1], in assay [3] and in assay [5] were 8 µg/mL (≈ 19.2 µM), 16 µg/mL (≈ 38.3 µM) and greater than 64 µg/mL, respectively. The “KP-3700 (MIC)” value in assay [2] worked out at 32 µg/mL. Moreover, the IC50 in assay [4] turned out to be 3.29 nM.
In the same order, the values of `Cc1cc(-c2ccc(-c3cnn(CCC(C)(C(=O)NO)S(C)(=O)=O)c3)cc2)[nH]n1` (stereo not shown) [Example 84, N-hydroxy-2-methyl-4-{4-[4-(3-methyl-1H-pyrazol-5-yl)phenyl]-1H-pyrazol-1-yl}-2-(methylsulfonyl)butanamide] are 16 µg/mL (≈ 38.3 µM), 64 µg/mL (≈ 153 µM), greater than 64 µg/mL, greater than 64.0 µg/mL and 6.44 nM.
In the same order, the values of `CC(CCn1cc(-c2cccc(-c3cc(N)[nH]n3)c2)cn1)(C(=O)NO)S(C)(=O)=O` (stereo not shown) [Example 85, 4-{4-[3-(5-amino-1H-pyrazol-3-yl)phenyl]-1H-pyrazol-1-yl}-N-hydroxy-2-methyl-2-(methylsulfonyl)butanamide] are greater than 64 µg/mL, greater than 64 µg/mL, greater than 64 µg/mL, greater than 64.0 µg/mL and 58.9 nM.
The corresponding values for `CC(CCn1cc(-c2ccc3cc(C(N)=O)[nH]c3c2)cn1)(C(=O)NO)S(C)(=O)=O` (stereo not shown) [Example 86, 6-{1-[4-(hydroxyamino)-3-methyl-3-(methylsulfonyl)-4-oxobutyl]-1H-pyrazol-4-yl}-1H-indole-2-carboxamide] are greater than 64 µg/mL, greater than 64 µg/mL, greater than 64 µg/mL, greater than 64.0 µg/mL and 14.5 nM.
As for `CC(CCn1cc(-c2ccc3[nH]c(C(N)=O)cc3c2)cn1)(C(=O)NO)S(C)(=O)=O` (stereo not shown) [Example 87, 5-{1-[4-(hydroxyamino)-3-methyl-3-(methylsulfonyl)-4-oxobutyl]-1H-pyrazol-4-yl}-1H-indole-2-carboxamide], the MIC in assay [1], in assay [3] and in assay [5] was greater than 64 µg/mL in each case. Besides, the “KP-3700 (MIC)” value in assay [2] is greater than 64.0 µg/mL. The IC50 in assay [4] came out at 63.6 nM.
For `CC(CCn1cc(-c2cccc(OC(F)(F)F)c2)cn1)(C(=O)NO)S(C)(=O)=O` (stereo not shown) [Example 88, N-hydroxy-2-methyl-2-(methylsulfonyl)-4-{4-[3-(trifluoromethoxy)phenyl]-1H-pyrazol-1-yl}butanamide], the results for the MIC in assay [1], in assay [3] and in assay [5] were 32 µg/mL (≈ 75.9 µM), 8 µg/mL (≈ 19 µM) and 64 µg/mL (≈ 152 µM), respectively. The “KP-3700 (MIC)” value in assay [2] was greater than 64.0 µg/mL. The 50% inhibitory concentration (IC50) in assay [4] is 0.652 nM.
The corresponding values for `CC(CCn1cc(-c2ccc(-c3csnn3)cc2)cn1)(C(=O)NO)S(C)(=O)=O` (stereo not shown) [Example 90, N-hydroxy-2-methyl-2-(methylsulfonyl)-4-{4-[4-(1,2,3-thiadiazol-4-yl)phenyl]-1H-pyrazol-1-yl}butanamide] are 16 µg/mL (≈ 38 µM), 4 µg/mL (≈ 9.49 µM), greater than 64 µg/mL, 64 µg/mL and 1.23 nM.
In the same order, the values of `CCc1nc2ccc(-c3cnn(CCC(C)(C(=O)NO)S(C)(=O)=O)c3)cc2s1` (stereo not shown) [Example 91, 4-[4-(2-ethyl-1,3-benzothiazol-6-yl)-1H-pyrazol-1-yl]-N-hydroxy-2-methyl-2-(methylsulfonyl)butanamide] are 32 µg/mL (≈ 75.7 µM), 16 µg/mL (≈ 37.9 µM), greater than 64 µg/mL, greater than 64.0 µg/mL and 2.55 nM.
In the same order, the values of `Cc1nccc(-c2ccc(-c3cnn(CCC(C)(C(=O)NO)S(C)(=O)=O)c3)cc2)n1` (stereo not shown) [Example 92, N-hydroxy-2-methyl-4-{4-[4-(2-methylpyrimidin-4-yl)phenyl]-1H-pyrazol-1-yl}-2-(methylsulfonyl)butanamide] are 32 µg/mL (≈ 74.5 µM), 32 µg/mL (≈ 74.5 µM), greater than 64 µg/mL, greater than 64.0 µg/mL and 5.49 nM.
Take “(2R)-4-[4-(2-fluoro-4-methoxyphenyl)-1H-1,2,3-triazol-1-yl]-N-hydroxy-2-methyl-2-(methylsulfonyl)butanamide [Example 22]”: in assay [1] (Escherichia coli EC-1 VOGEL, mouse virulent, overnight incubation, lower of duplicate values), the “EC-1 (MIC)” value worked out at 4 µg/mL. In assay [2], the “KP-3700 (MIC)” value is 32 µg/mL. For the same molecule, in assay [3], the “PA-7 (MIC)” value was determined as 2 µg/mL. For the same molecule, the IC50 in assay [4] stood at 1.2 nM. The “AB-3167 (MIC)” value in assay [5] is greater than 64.0 µg/mL.
